The target of experiment [1] is T1, human B1R receptor (hB1R) (Homo sapiens, UniProt P46663).
T1 construct: host or cells: CHO K1 cells
T1 sequence (P46663 1-353): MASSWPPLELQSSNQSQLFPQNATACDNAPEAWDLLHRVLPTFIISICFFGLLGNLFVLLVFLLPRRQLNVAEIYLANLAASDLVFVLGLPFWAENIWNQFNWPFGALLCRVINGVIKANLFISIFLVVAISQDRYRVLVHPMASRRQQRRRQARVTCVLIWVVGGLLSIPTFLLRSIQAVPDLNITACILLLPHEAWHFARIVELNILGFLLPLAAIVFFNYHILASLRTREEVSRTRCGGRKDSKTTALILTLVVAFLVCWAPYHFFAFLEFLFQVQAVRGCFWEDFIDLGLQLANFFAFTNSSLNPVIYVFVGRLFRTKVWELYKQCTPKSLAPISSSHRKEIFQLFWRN
Kind of experiment: FLIPR Ca2+ assay on human bradykinin 1 receptor (CHO K1 hB1R cells). The experiment is classed as cell-based. Conditions: test substance 10 μM; CHO K1 cells with human B1R gene; agonist Lys-Des-Arg9-bradykinin 0.5 nM; compared to maximum achievable inhibition. How it is done: (§1) The agonistic or antagonistic action of compounds can be quantified on the bradykinin 1 receptor (B1R) of humans and rats with ectopically expressing cell lines (CHO K1 cells) and with the aid of a Ca^2+-sensitive dye (Fluo-4) in the fluorescent imaging plate reader (FLIPR). The figure in percent activation refers to the Ca^2+ signal after addition of Lys-Des-Arg^9-bradykinin (0.5 nM) and Des-Arg^9-bradykinin (100 nM). Antagonists result in a suppression of the Ca^2+ inflow after the addition of the agonist. Percent inhibition values are given in comparison to the maximum achievable inhibition.
(§2) The agonistic or antagonistic action of substances can be determined on the bradykinin 1 receptor (B1R) of humans and rats by means of the following assay.
(§3) According to this assay the Ca^2+ inflow through the channel is quantified by means of a Ca^2+-sensitive dye (Fluo-4 type, Molecular Probes Europe BV, Leiden, Netherlands), in a Fluorescent Imaging Plate Reader (FLIPR, Molecular Devices, Sunnyvale, USA). Method:
(§4) Chinese hamster ovary cells (CHO K1 cells) are used, which are stably transfected with the human B1R gene (hB1R cells, Euroscreen s.a., Gosselies, Belgium), or with the B1R gene of rats (rB1R cells, Axxam, Milan, Italy). For functional investigations these cells are plated out on black 96-well plates with a clear floor (BD Biosciences, Heidelberg, Germany) in a density of 20,000/25,000 cells/well. The cells are incubated overnight with 10 vol. % FBS (foetal bovine serum, Gibco Invitrogen GmbH, Karlsruhe, Germany) at 37° C. and 5% CO2 in a culture medium (hB1R cells: Nutrient Mixture Ham's F12, Gibco Invitrogen GmbH, Karlsruhe, Germany; rB1R cells: D-MEM/F12, Gibco Invitrogen GmbH, Karlsruhe, Germany). The following day the cells are charged for 60 minutes at 37° C. with 2.13 μM Fluo-4 (Molecular Probes Europe BV, Leiden, Netherlands) in HBSS buffer (Hank's buffered saline solution, Gibco Invitrogen GmbH, Karlsruhe, Germany) together with […] (Sigma-Aldrich, Taufkirchen, Germany) and 10 mM HEPES (Sigma-Aldrich, Taufkirchen, Germany).
(§5) The plates are then washed twice with HBSS buffer and HBSS buffer is added which additionally contains 0.1% BSA (bovine serum albumin; Sigma-Aldrich, Taufkirchen, Germany), 5.6 mM glucose and 0.05% gelatin (Merck KGaA, Darmstadt, Germany). After further incubation for 20 minutes at room temperature the plates are used for the Ca^2+ measurement in the FLIPR. The Ca^2+-dependent fluorescence is measured both before and after the addition of substances (λex=488 nm, λem=540 nm). The quantification is carried out by measuring the highest fluorescence intensity (FC, fluorescence counts) over time.
(§6) The FLIPR protocol consists of two substance additions. First of all test substances (10 μM) are pipetted onto the cells and the Ca^2+ inflow is compared with the control (hB1R: Lys-Des-Arg9-bradykinin 0.5 nM; rB1R: Des-Arg9-bradykinin 100 nM). This gives the result in percent activation referred to the Ca^2+ signal after addition of Lys-Des-Arg9-bradykinin (0.5 nM), bzw. Des-Arg9-bradykinin (100 nM). After 10 minutes' incubation 0.5 nM Lys-Des-Arg9-bradykinin (hB1R) and 100 nM Des-Arg^9-bradykinin (rB1R) are applied and the inflow of Ca^2+ is likewise determined. Antagonists lead to a suppression of the Ca^2+ inflow. The percent inhibition compared to the maximum achievable inhibition is calculated. The compounds show a good activity on both human and rat receptors.
(§7) The agonistic and antagonistic action of the compounds according to the invention on the bradykinin 1 receptor (B1R) of humans and rats were determined as described above. Antagonists lead to a suppression of the Ca^2+ inflow. The % inhibition compared to the maximum achievable inhibition was calculated.

Experiment [2] deals with T2, B1R receptor of rats (rB1R) (Rattus norvegicus, UniProt P97583).
T2 construct: host or cells: CHO K1 cells
T2 sequence (P97583 1-337): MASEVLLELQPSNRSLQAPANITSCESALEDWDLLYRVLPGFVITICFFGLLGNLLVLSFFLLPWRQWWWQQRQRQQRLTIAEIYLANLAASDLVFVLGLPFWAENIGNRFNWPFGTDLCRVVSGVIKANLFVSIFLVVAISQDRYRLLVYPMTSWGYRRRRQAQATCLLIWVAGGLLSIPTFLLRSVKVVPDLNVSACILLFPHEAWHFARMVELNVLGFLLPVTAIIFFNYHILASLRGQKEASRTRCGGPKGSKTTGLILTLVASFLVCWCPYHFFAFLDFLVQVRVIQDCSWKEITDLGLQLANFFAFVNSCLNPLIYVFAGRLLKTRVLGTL
Put plainly: FLIPR Ca2+ assay on rat bradykinin 1 receptor (CHO K1 rB1R cells). The experiment is classed as cell-based. The settings on record: test substance 10 μM; CHO K1 cells with B1R gene of rats; agonist Des-Arg9-bradykinin 100 nM; compared to maximum achievable inhibition. As to the method: as §1, §2, §3, §4, §5, §6, §7

SMILES strings stand for the structures.

Take `COc1c(C)cc(S(=O)(=O)N(C)CCOCC(=O)N2CCn3cccc3C2C)c(C)c1C` (stereo not drawn) [Example 28, 4-methoxy-N,2,3,5-tetramethyl-N-(2-(2-(1-methyl-3,4-dihydropyrrolo[1,2-a]pyrazin-2(1H)-yl)-2-oxoethoxy)ethyl)benzenesulfonamide]: the inhibition (usually the drop in the measured response relative to a control, in per cent) at 10 µM in experiment [1] was determined as 37%; in experiment [2] it was 81%.

`COc1c(C)cc(S(=O)(=O)N(C)CCOCC(=O)N2CCn3cccc3C2c2cccnc2)c(C)c1C` (stereo not drawn) [Example 29, 4-methoxy-N,2,3,5-tetramethyl-N-(2-(2-oxo-2-(1-(pyridin-3-yl)-3,4-dihydropyrrolo[1,2-a]pyrazin-2(1H)-yl)ethoxy)ethyl)benzenesulfonamide]: the inhibition at 10 µM turned out to be 96% in experiment [1] and 79% in experiment [2].

Take `COc1c(C)cc(S(=O)(=O)N(C)CCOCC(=O)N2CCn3cccc3C2c2ccc(Cl)nc2)c(C)c1C` (stereo not drawn) [Example 30, N-(2-(2-(1-(6-chloropyridin-3-yl)-3,4-dihydropyrrolo[1,2-a]pyrazin-2(1H)-yl)-2-oxoethoxy)ethyl)-4-methoxy-N,2,3,5-tetramethylbenzenesulfonamide]: the values for the inhibition at 10 µM in experiment [1] and in experiment [2] were 98% and 76%, respectively.

With `COc1ccc(C2c3cccn3CCN2C(=O)COCCN(C)S(=O)(=O)c2cc(C)c(OC)c(C)c2C)cc1` (stereo not drawn) [Example 31, 4-methoxy-N-(2-(2-(1-(4-methoxyphenyl)-3,4-dihydropyrrolo[1,2-a]pyrazin-2(1H)-yl)-2-oxoethoxy)ethyl)-N,2,3,5-tetramethylbenzenesulfonamide], the inhibition at 10 µM in experiment [1] came to 95%; in experiment [2], 67%.

For the compound `COc1c(C)cc(S(=O)(=O)N(C)CCOCC(=O)N2CCn3cccc3C2c2ccccc2)c(C)c1C` (stereo not drawn) [Example 32, 4-methoxy-N,2,3,5-tetramethyl-N-(2-(2-oxo-2-(1-phenyl-3,4-dihydropyrrolo[1,2-a]pyrazin-2(1H)-yl)ethoxy)ethyl)benzenesulfonamide], the values for the inhibition at 10 µM in experiment [1] and in experiment [2] were 78% and 99%, respectively.

Regarding `COc1c(C)cc(S(=O)(=O)N(C)CCOCC(=O)N2CCn3cccc3C2c2ccc(F)c(F)c2)c(C)c1C` (stereo not drawn) [Example 33, N-(2-(2-(1-(3,4-difluorophenyl)-3,4-dihydropyrrolo[1,2-a]pyrazin-2(1H)-yl)-2-oxoethoxy)ethyl)-4-methoxy-N,2,3,5-tetramethylbenzenesulfonamide], the inhibition at 10 µM in experiment [1] is 71%; in experiment [2] it was 66%.

On to `COc1c(C)cc(S(=O)(=O)N(C)CCOCC(=O)N2CCn3cccc3C2c2ccc(C)c(C)c2)c(C)c1C` (stereo not drawn) [Example 34, N-(2-(2-(1-(3,4-dimethylphenyl)-3,4-dihydropyrrolo[1,2-a]pyrazin-2(1H)-yl)-2-oxoethoxy)ethyl)-4-methoxy-N,2,3,5-tetramethylbenzenesulfonamide], for which the inhibition at 10 µM was 58% in experiment [1] and 42% in experiment [2].

Consider `COc1c(C)cc(S(=O)(=O)N(C)CCOCC(=O)N2CCn3cccc3C2c2cccc(F)c2)c(C)c1C` (stereo not drawn) [Example 35, N-(2-(2-(1-(3-fluorophenyl)-3,4-dihydropyrrolo[1,2-a]pyrazin-2(1H)-yl)-2-oxoethoxy)ethyl)-4-methoxy-N,2,3,5-tetramethylbenzenesulfonamide], for which the inhibition at 10 µM in experiment [1] is 81%; in experiment [2] it was 48%.

As to `COc1c(C)cc(S(=O)(=O)N(C)CCOCC(=O)N2CCn3cccc3C2c2cccs2)c(C)c1C` (stereo not drawn) [Example 36, 4-methoxy-N,2,3,5-tetramethyl-N-(2-(2-oxo-2-(1-(thiophen-2-yl)-3,4-dihydropyrrolo[1,2-a]pyrazin-2(1H)-yl)ethoxy)ethyl)benzenesulfonamide], the inhibition at 10 µM in experiment [1] stood at 97%; in experiment [2], 85%.

For the compound `COc1c(C)cc(S(=O)(=O)N(C)CCOCC(=O)N2CCn3cccc3C2c2cccc(C(F)(F)F)c2)c(C)c1C` (stereo not drawn) [Example 37, 4-methoxy-N,2,3,5-tetramethyl-N-(2-(2-oxo-2-(1-(3-(trifluoromethyl)phenyl)-3,4-dihydropyrrolo[1,2-a]pyrazin-2(1H)-yl)ethoxy)ethyl)benzenesulfonamide], the inhibition at 10 µM in experiment [1] came to 38%; in experiment [2] it was 72%.

`COc1cccc(C2c3cccn3CCN2C(=O)COCCN(C)S(=O)(=O)c2cc(C)c(OC)c(C)c2C)c1` (stereo not drawn) [Example 38, 4-methoxy-N-(2-(2-(1-(3-methoxyphenyl)-3,4-dihydropyrrolo[1,2-a]pyrazin-2(1H)-yl)-2-oxoethoxy)ethyl)-N,2,3,5-tetramethylbenzenesulfonamide]: the results for the inhibition at 10 µM in experiment [1] and in experiment [2] were 97% and 43%, respectively.

As for `COc1c(C)cc(S(=O)(=O)N(C)CCOCC(=O)N2CCn3cccc3C2c2ccc(C(F)(F)F)cc2F)c(C)c1C` (stereo not drawn) [Example 39, N-(2-(2-(1-(2-fluoro-4-(trifluoromethyl)phenyl)-3,4-dihydropyrrolo[1,2-a]pyrazin-2(1H)-yl)-2-oxoethoxy)ethyl)-4-methoxy-N,2,3,5-tetramethyl-benzenesulfonamide], the inhibition at 10 µM in experiment [1] was 35%; in experiment [2], 80%.

In the case of `COc1cc(C)c(S(=O)(=O)N(CCOCC(=O)N2CCn3cccc3C2C)Cc2ccccc2)c(C)c1C` (stereo not drawn) [Example 40, N-benzyl-4-methoxy-2,3,6-trimethyl-N-(2-(2-(1-methyl-3,4-dihydropyrrolo[1,2-a]pyrazin-2(1H)-yl)-2-oxoethoxy)ethyl)benzenesulfonamide], the inhibition at 10 µM in experiment [1] was found to be 34%; in experiment [2] it was 95%.

As to `COc1cc(C)c(S(=O)(=O)N(CCOCC(=O)N2CCn3cccc3C2c2cccnc2)Cc2ccccc2)c(C)c1C` (stereo not drawn) [Example 41, N-benzyl-4-methoxy-2,3,6-trimethyl-N-(2-(2-oxo-2-(1-(pyridin-3-yl)-3,4-dihydropyrrolo[1,2-a]pyrazin-2(1H)-yl)ethoxy)ethyl)benzenesulfonamide], the inhibition at 10 µM was determined as 57% in experiment [1] and 96% in experiment [2].

As to `COc1cc(C)c(S(=O)(=O)N(CCOCC(=O)N2CCn3cccc3C2c2ccc(Cl)nc2)Cc2ccccc2)c(C)c1C` (stereo not drawn) [Example 42, N-benzyl-N-(2-(2-(1-(6-chloropyridin-3-yl)-3,4-dihydropyrrolo[1,2-a]pyrazin-2(1H)-yl)-2-oxoethoxy)ethyl)-4-methoxy-2,3,6-trimethylbenzenesulfonamide], the inhibition at 10 µM amounted to 33% in experiment [1] and 91% in experiment [2].

Values taken from US8263598B2, “Substituted sulfonamide compounds” (Gruenenthal GmbH, priority 2008, dated 2012).
